In ChEMBL document CHEMBL5291721, “A preclinical secondary pharmacology resource illuminates target-adverse drug reaction associations of marketed drugs” (Nat Commun, 2023):

How the values were obtained:
[1] = molecular target: T1, Alpha-1A adrenergic receptor (Homo sapiens, UniProt P35348); type: functional, cell-based
T1 sequence (P35348 whole entry): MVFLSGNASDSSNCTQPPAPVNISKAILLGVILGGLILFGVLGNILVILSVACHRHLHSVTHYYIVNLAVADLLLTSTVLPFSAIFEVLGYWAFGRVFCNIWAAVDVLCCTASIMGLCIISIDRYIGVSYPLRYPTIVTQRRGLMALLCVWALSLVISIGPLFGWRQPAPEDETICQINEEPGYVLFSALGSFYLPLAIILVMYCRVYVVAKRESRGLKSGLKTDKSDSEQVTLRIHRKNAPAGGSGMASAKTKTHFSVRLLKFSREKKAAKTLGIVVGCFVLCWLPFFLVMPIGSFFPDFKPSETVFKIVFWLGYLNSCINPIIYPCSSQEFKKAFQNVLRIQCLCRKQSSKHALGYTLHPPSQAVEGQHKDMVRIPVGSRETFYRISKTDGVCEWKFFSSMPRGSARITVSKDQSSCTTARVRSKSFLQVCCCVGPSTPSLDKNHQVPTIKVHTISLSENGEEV

[2] = molecular target: T2, Amine oxidase [flavin-containing] A (Homo sapiens, UniProt P21397); type: functional
T2 sequence (P21397 whole entry): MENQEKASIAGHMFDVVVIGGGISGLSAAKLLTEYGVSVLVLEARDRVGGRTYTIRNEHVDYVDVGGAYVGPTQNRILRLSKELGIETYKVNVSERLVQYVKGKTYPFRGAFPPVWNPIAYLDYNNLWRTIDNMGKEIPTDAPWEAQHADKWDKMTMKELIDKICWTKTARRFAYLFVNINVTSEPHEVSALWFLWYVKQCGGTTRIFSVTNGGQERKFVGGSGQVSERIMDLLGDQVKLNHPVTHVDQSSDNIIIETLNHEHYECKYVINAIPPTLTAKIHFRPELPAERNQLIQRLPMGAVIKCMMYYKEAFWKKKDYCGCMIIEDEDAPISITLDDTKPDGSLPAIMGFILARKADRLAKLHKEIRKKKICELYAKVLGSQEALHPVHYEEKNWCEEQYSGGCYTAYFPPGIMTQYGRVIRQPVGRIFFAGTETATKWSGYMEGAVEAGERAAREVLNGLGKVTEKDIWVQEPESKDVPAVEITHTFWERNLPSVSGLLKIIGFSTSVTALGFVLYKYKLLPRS

[3] = molecular target: Glutamate receptor ionotropic, NMDA 1 (Rattus norvegicus, UniProt P35439)
[4] = molecular target: T3, Thromboxane A2 receptor (Homo sapiens, UniProt P21731)
T3 sequence (P21731 whole entry): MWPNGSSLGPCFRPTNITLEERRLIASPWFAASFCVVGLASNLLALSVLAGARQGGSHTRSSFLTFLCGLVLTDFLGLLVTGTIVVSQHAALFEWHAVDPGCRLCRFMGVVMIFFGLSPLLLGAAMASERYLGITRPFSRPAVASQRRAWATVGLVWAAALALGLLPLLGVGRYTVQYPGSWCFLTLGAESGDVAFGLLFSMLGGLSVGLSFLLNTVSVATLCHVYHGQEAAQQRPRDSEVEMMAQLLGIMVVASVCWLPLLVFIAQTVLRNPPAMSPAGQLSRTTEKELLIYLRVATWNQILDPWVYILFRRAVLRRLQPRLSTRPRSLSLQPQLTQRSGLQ

[5] = molecular target: T4, Alpha-2A adrenergic receptor (Homo sapiens, UniProt P08913); type: functional, cell-based
T4 sequence (P08913 whole entry): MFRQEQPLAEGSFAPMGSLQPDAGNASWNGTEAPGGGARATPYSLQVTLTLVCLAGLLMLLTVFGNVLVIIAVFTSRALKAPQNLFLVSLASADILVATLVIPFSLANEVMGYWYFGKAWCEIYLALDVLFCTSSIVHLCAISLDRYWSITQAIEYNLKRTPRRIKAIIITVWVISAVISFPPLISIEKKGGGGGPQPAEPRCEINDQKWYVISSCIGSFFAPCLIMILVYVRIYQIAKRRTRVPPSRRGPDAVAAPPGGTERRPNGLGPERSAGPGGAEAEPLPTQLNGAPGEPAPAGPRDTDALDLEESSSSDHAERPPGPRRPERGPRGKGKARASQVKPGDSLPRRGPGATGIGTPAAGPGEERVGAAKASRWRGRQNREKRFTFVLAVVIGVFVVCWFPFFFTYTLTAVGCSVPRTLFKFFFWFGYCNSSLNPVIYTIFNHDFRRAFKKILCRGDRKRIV

[6] = molecular target: Voltage-gated inwardly rectifying potassium channel KCNH2 (Homo sapiens, UniProt Q12809); type: functional
[7] = molecular target: Histamine H2 receptor (Homo sapiens, UniProt P25021); type: functional, cell-based
[8] = molecular target: T5, Glucocorticoid receptor (Homo sapiens, UniProt P04150)
T5 sequence (P04150 whole entry): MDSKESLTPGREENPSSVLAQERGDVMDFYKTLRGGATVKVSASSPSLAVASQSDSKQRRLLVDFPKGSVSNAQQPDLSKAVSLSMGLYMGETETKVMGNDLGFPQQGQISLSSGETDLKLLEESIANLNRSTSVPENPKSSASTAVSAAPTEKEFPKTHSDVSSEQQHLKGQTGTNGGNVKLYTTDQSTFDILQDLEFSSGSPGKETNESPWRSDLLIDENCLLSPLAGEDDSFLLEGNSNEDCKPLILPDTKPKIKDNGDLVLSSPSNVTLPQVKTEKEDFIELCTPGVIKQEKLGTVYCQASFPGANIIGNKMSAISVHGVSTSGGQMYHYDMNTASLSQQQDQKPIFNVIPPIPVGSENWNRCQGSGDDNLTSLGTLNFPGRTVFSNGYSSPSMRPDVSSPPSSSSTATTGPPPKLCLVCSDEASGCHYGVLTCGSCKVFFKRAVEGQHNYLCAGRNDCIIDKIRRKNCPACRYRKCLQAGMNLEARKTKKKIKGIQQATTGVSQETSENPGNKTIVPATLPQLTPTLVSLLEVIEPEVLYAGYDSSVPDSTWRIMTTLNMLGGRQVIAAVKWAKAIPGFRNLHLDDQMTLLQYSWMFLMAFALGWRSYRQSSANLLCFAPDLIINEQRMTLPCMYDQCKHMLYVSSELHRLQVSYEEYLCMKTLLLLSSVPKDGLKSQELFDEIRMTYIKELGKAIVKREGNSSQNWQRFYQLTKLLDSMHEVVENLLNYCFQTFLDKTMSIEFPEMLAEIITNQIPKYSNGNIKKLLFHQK
Also: assay procedure not described here.

Sequence of Histamine H2 receptor (P25021 whole entry): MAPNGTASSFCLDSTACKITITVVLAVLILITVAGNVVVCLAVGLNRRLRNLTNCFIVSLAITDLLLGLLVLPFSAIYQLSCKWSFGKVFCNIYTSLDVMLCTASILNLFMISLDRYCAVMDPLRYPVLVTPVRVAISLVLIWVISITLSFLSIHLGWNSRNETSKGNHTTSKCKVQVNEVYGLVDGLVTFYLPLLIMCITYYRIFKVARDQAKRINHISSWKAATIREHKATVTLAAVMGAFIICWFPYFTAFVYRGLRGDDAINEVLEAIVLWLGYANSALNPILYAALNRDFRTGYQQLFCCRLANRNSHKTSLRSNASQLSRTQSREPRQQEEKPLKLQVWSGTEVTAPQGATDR
Sequence of Voltage-gated inwardly rectifying potassium channel KCNH2 (Q12809 whole entry): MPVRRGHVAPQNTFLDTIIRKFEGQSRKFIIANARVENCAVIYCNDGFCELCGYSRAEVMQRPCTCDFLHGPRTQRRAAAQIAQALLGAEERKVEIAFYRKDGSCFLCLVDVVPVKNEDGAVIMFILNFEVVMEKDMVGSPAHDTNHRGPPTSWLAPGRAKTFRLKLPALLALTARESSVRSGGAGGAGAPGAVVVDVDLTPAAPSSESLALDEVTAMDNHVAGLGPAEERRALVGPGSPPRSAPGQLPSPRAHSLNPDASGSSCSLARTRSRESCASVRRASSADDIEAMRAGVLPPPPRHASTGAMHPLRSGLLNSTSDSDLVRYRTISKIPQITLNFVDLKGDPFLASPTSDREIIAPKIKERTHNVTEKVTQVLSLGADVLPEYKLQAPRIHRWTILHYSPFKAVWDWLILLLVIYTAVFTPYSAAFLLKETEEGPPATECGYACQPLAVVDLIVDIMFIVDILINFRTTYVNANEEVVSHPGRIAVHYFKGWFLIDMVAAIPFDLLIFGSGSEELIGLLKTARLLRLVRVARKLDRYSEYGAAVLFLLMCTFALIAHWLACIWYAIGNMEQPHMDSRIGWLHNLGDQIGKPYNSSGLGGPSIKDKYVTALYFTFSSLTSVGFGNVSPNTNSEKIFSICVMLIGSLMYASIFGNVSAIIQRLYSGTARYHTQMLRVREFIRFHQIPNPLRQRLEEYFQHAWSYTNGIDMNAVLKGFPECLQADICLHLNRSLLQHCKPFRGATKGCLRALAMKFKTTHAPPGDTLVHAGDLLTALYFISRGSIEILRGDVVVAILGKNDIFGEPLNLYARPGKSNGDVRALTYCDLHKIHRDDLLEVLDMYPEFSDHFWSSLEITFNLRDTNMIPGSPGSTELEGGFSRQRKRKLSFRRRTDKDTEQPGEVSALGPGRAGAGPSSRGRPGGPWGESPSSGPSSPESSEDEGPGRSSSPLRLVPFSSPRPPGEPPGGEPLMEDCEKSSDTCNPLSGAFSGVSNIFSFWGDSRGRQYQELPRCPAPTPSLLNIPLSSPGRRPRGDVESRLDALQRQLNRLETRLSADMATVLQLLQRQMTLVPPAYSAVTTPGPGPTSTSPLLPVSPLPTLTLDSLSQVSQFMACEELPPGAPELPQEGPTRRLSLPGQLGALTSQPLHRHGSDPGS

SMILES | AC50 [1] | AC50 [2] | AC50 [3] | AC50 [4] | AC50 [5] | AC50 [6] | AC50 [7] | AC50 [8]
Oc1cc(O)c(Cl)cn1 | > 30 µM | > 30 µM | > 30 µM | > 30 µM | > 30 µM | > 30 µM | > 30 µM | –
CCC1(CCC(C)C)C(=O)NC(=O)NC1=O [AMOBARBITAL] | – | > 10 µM | > 10 µM | > 10 µM | > 10 µM | > 30 µM | > 10 µM | –
COc1ccc(C2C(=O)c3ccccc3C2=O)cc1 [ANISINDIONE] | – | 91 µM | > 10 µM | > 10 µM | > 10 µM | > 30 µM | > 30 µM | > 30 µM
Cc1cc(=O)n(-c2ccccc2)n1C [ANTIPYRINE] | > 30 µM | > 10 µM | > 10 µM | > 30 µM | > 10 µM | > 30 µM | > 10 µM | –
O=C(O)CCNC(=O)c1ccc(/N=N/c2ccc(O)c(C(=O)O)c2)cc1 [BALSALAZIDE] | – | > 30 µM | > 30 µM | > 30 µM | > 30 µM | > 30 µM | > 30 µM | > 30 µM
O=C(O)c1ccc(NC(=O)[C@H](Cc2ccc(O)cc2)NC(=O)c2ccccc2)cc1 [BENTIROMIDE] | – | > 10 µM | > 10 µM | > 10 µM | > 10 µM | > 30 µM | > 10 µM | –
NS(=O)(=O)c1cc2c(cc1Cl)N=C(CSCc1ccccc1)NS2(=O)=O [BENZTHIAZIDE] | – | > 30 µM | > 10 µM | > 10 µM | 1.7 µM | > 30 µM | > 30 µM | > 30 µM
C[C@@H]1C[C@H]2[C@@H]3CCC4=CC(=O)C=C[C@]4(C)[C@@]3(F)[C@@H](O)C[C@]2(C)[C@@]1(O)C(=O)CO [DEXAMETHASONE] | – | > 30 µM | > 10 µM | > 30 µM | > 10 µM | > 30 µM | > 30 µM | –
CC(C)[C@@H](C)/C=C/[C@@H](C)[C@H]1CC[C@H]2/C(=C/C=C3\C[C@@H](O)CC[C@@H]3C)CCC[C@]12C [DIHYDROTACHYSTEROL] | – | > 10 µM | > 10 µM | > 10 µM | > 10 µM | > 30 µM | > 10 µM | –
Oc1ccc(CCNCCCCCCNCCc2ccccc2)cc1O [DOPEXAMINE] | > 30 µM | > 30 µM | > 30 µM | > 30 µM | > 30 µM | 2.9 µM | > 30 µM | –
CC(C)NC[C@H](O)COc1ccc(CC(N)=O)cc1 [ESATENOLOL] | – | > 10 µM | > 10 µM | > 30 µM | > 10 µM | – | > 10 µM | –
CCOC(=O)c1ncn2c1CN(C)C(=O)c1cc(F)ccc1-2 [FLUMAZENIL] | > 30 µM | > 30 µM | > 30 µM | > 30 µM | > 30 µM | > 30 µM | > 30 µM | –
CCCC(C)(COC(N)=O)COC(N)=O [MEPROBAMATE] | – | > 30 µM | > 10 µM | > 10 µM | > 10 µM | > 30 µM | > 30 µM | > 10 µM
O=C(c1cc(Cc2n[nH]c(=O)c3ccccc23)ccc1F)N1CCN(C(=O)C2CC2)CC1 [OLAPARIB] | – | > 10 µM | > 10 µM | > 30 µM | > 10 µM | > 30 µM | > 30 µM | > 30 µM
CO[C@H]1C[C@H](O[C@H]2CC[C@@]3(C)[C@H](CC[C@@H]4[C@@H]3CC[C@]3(C)[C@@H](C5=CC(=O)OC5)[C@@H](OC(C)=O)C[C@]43O)C2)O[C@@H](C)[C@@H]1O [OLEANDRIN] | > 30 µM | > 30 µM | > 30 µM | – | > 30 µM | > 30 µM | > 30 µM | –
Fc1ccc([C@@H]2CCNC[C@H]2COc2ccc3c(c2)OCO3)cc1 [PAROXETINE] | – | > 10 µM | > 10 µM | > 30 µM | – | – | – | > 30 µM
NC(=O)NC(=O)Cc1ccccc1 [PHENACEMIDE] | – | > 10 µM | > 10 µM | > 10 µM | > 10 µM | > 30 µM | > 10 µM | > 10 µM
CCCN(CCC)S(=O)(=O)c1ccc(C(=O)O)cc1 [PROBENECID] | – | > 10 µM | > 10 µM | > 10 µM | > 10 µM | > 30 µM | > 10 µM | > 10 µM
CCC(=O)O[C@](Cc1ccccc1)(c1ccccc1)[C@H](C)CN(C)C [PROPOXYPHENE] | > 30 µM | > 10 µM | > 10 µM | > 30 µM | > 10 µM | 1.74 µM | > 10 µM | –
O=c1c(O)c(-c2ccc(O)c(O)c2)oc2cc(O)cc(O)c12 [QUERCETIN] | – | 5.6 µM | – | > 30 µM | > 30 µM | > 30 µM | > 30 µM | –
CCN(CC)CCCC(C)Nc1c2ccc(Cl)cc2nc2ccc(OC)cc12 (configuration not stated) [QUINACRINE] | – | – | – | – | – | 0.7 µM | – | –
CC1=C(/C=C/C(C)=C/C=C/C(C)=C/CO)C(C)(C)CCC1 [RETINOL] | – | > 10 µM | > 10 µM | > 10 µM | > 10 µM | – | > 10 µM | –
CCCN1CCCC[C@H]1C(=O)Nc1c(C)cccc1C [ROPIVACAINE] | > 30 µM | > 30 µM | > 30 µM | > 30 µM | > 30 µM | > 30 µM | > 30 µM | –
CCCCCCCC(=O)CC[C@@H]1[C@@H](C/C=C\CCCC(=O)OC(C)C)[C@@H](O)C[C@H]1O [UNOPROSTONE ISOPROPYL] | – | > 30 µM | – | – | – | – | – | –
